In the assay the target is T1, hPrp28ΔN (Homo sapiens, UniProt Q9BUQ8).
T1 construct: gene DDX23; helicase domain plus short N-terminal extension, residues 338-820; GST tag cleaved with PreScission protease; E. coli BL21 Star (DE3)
T1 sequence (Q9BUQ8 338-820): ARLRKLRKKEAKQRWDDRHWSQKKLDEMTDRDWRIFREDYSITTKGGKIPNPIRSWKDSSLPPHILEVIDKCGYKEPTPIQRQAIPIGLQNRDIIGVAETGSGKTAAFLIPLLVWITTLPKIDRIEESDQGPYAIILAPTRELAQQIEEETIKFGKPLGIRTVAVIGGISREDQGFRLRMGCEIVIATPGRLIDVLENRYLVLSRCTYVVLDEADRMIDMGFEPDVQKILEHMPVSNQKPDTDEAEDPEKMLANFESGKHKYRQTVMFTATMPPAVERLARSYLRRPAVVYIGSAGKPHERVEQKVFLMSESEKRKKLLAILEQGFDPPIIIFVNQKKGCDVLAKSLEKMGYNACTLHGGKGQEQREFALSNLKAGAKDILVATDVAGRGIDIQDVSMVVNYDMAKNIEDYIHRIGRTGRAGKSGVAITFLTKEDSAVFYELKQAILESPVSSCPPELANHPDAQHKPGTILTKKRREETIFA
Kind of assay: fluorescence titration, Trp emission at […] nm (excitation […] nm). The format is binding.

The Kd is a measure of binding affinity in units of concentration. A lower Kd goes with tighter binding. Turning to `CNc1ccccc1C(=O)O[C@H]1[C@@H](O)[C@H](n2cnc3c(N)ncnc32)O[C@@H]1CO[P@@](=O)(O)O[P@](=O)(O)OP(=O)(O)O` [mant-ATP], the Kd was > 400 µM.

The values above are taken from publication PMC4051504, “Structural and functional analysis of the human spliceosomal DEAD-box helicase Prp28” (Acta Crystallographica Section D: Biological Crystallography, 2014).
